Experimental data taken from US10617649B2 (Zhejiang Huahai Pharmaceutical Co., Ltd, priority 2016, dated 2020).

How the values were obtained:
[1] = Stability of azacitidine solution as a function of the preparation temperature; assay type: physicochemical
[2] = Content of bacterial endotoxin; conditions: excipient used in Example 3
[3] = temperature of azacitidine solution higher than 6° C.

Compound | Stability of azacitidine in solution, compared between temperatures ([1]; solution prepared at 4-6° C. compared to 2-3° C.) | Stability of azacitidine in solution ([1]; temperature for preparing azacitidine solution controlled at 2-6° C.) | Content of azacitidine in solution [1, 3] | Related substances in solution [1, 3] | Content of bacterial endotoxin in excipient [2] [EU/g]
Nc1ncn([C@@H]2O[C@H](CO)[C@@H](O)[C@H]2O)c(=O)n1 [azacitidine, Azacitidine] | the same stability | good stability | significantly decreased | significantly increased | 
OC[C@@H](O)[C@@H](O)[C@H](O)[C@H](O)CO [mannitol, Mannitol] |  |  |  |  | 2.5
